Values after ≈ are worked out from the molar mass of the structure shown. Values joined by “and” are separate entries in the source; they are usually repeats but may differ in a detail not shown here. Equal entries are not always repeated. Where two headings read alike, the source gives them in different places.
How the values were obtained:
[1] = system: VCB: PROTAC: SMARCA4^BD ternary complex; test: TR-FRET ternary complex affinity and cooperativity, SMARCA4; assay type: binding, human; settings: ratio TR-FRET EC50 / TR-FRET EC50 +VCB measured in the same run, SMARCA4BD
[2] = Solubility testing; assay type: physicochemical; settings: for solubility at 24 h: buffer, kinetic from dmso stock
Experimental: Dilution into a 1:1 mixture of acetonitrile and water was used as reference. After 24 h, the incubations were filtrated, and the filtrate was analyzed by LC-UV.

[3] = Microsomal stability; assay type: in vitro ADME; settings: for Mic. Stab. Human / Mic. Stab. Human QH: human liver microsomes; for Mic. Stab. Mouse / Mic. Stab. Mouse QH: mouse liver microsomes; for Mic. Stab. Rat / Mic. Stab. Rat QH: rat liver microsomes
Experimental: […] Reactions were terminated by addition of acetonitrile and precipitates separated by centrifugation. Compound concentrations in supernatants were measured by HPLC-MS/MS and clearance was calculated from compound half-lives using the well-stirred liver model.

[4] = molecular target: T1, PBRM1BD5 (Homo sapiens, UniProt P40337+Q86U86); test: TR-FRET ternary complex affinity and cooperativity, PBRM1; assay type: binding; settings: TR-FRET competition for PBRM1BD5, + VCB; mean ± SD; read-out: TR-FRET Ternary PBRM1BD EC50 (PROTAC + VCB)
T1 construct: GST (TEV site) (N); His6 (TEV site) (N, cleaved yes); made in house; host or cells: PBRM1^BD5: Escherichia coli BL21(DE3)
T1 sequence (Q86U86 645-766): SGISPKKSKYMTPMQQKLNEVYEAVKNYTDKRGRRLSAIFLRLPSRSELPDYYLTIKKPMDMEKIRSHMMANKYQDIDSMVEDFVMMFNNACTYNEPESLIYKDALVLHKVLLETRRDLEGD
T1 sequence (P40337 54-213): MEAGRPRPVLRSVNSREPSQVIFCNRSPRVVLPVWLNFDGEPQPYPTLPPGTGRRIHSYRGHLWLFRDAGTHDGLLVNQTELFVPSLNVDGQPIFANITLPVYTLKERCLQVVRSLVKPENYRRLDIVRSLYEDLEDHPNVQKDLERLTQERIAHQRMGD
T1 sequence (Q15369 17-112 partner): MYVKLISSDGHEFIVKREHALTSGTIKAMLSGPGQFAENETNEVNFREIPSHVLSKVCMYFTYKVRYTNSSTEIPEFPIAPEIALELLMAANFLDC
T1 sequence (Q15370 1-104 partner): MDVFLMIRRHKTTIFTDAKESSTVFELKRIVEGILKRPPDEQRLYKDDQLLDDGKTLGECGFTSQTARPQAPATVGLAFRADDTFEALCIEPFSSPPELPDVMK

[5] = system: PBRM1BD5; test: as above; assay type: binding; settings: ratio TR-FRET EC50 / TR-FRET EC50 +VCB measured in the same run, PBRM1BD5
[6] = molecular target: VCB: PROTAC: SMARCA2^BD ternary complex (Homo sapiens, UniProt P40337+P51531); test: SPR ternary complex measurement, VCB immobilised, 10 µM SMARCA2^BD present; assay type: binding; design: P51531-2, residues 1373-1493 with additional N-terminal SM residues; His6 (TEV site) (N, cleaved yes); GST (TEV site) (N, cleaved yes); made in house; host or cells: SMARCA2^BD: Escherichia coli BL21(DE3); settings: for Kd: SPR; for alpha: cooperativity, SMARCA2, ratio of KD values measured in the same run
VCB: PROTAC: SMARCA2^BD ternary complex, sequence (P40337 54-213): as the sequence (P40337 54-213) above
VCB: PROTAC: SMARCA2^BD ternary complex, sequence (Q15369 17-112 partner limits assumed): as the sequence (Q15369 17-112 partner) above
VCB: PROTAC: SMARCA2^BD ternary complex, sequence (Q15370 1-104 partner limits assumed): as the sequence (Q15370 1-104 partner) above
VCB: PROTAC: SMARCA2^BD ternary complex, sequence (P51531 1373-1493 isoform P51531-2): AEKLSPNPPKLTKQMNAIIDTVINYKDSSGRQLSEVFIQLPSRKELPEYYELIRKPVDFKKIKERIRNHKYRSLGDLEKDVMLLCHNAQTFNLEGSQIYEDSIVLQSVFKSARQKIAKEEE
Experimental: SPR data were acquired on Biacore 8K or T200 instruments (Cytiva). Target proteins were immobilised at 25 °C on CM5 chips by amine coupling (EDC/NHS, Cytiva) in HBS-P+ running buffer (pH 7.4), containing 2 mM TCEP. […] The reference surface was subsequently deactivated using 1 M ethanolamine. […] Biotinylated VCB was prepared as previously described[27]: in brief, the complex was mixed 1:1 with EZ-Link NHS–PEG4–biotin (Thermo Scientific) and incubated at room temperature for 1 h. Unreacted NHS-biotin was removed using a PD-10 desalting column (Cytiva) into 20 mM HEPES, pH 7.5, 150 mM sodium chloride and 1 mM DTT. The reference surface was generated by deactivating the EDC/NHS-treated surface with 1 M ethanolamine. All interaction experiments were done at 6 °C in running buffer (20 mM TRIS, pH 8.3, 150 mM potassium chloride, 2 mM magnesium chloride, 2 mM TCEP, 0.005% TWEEN 20, 1% dimethyl sulfoxide). For ternary complex measurements, a sensor chip surface with VCB immobilised was used (preparation as described above). Experiments were run in dual-inject mode with 10 µM SMARCA present during the injection and dissociation phase. Sensorgrams from reference surfaces and blank injections were subtracted from the raw data prior to data analysis using Biacore Insight software. Affinity and binding kinetic parameters were determined by global fitting using the 1:1 interaction model with a term for mass-transport included.

[7] = pH 4.5, aqueous buffer, pH 4.5, read-out: Solubility pH 4.5
[8] = pH 6.8, aqueous buffer, pH 6.8, read-out: Solubility pH 6.8
[9] = ternary complex with SMARCA2BD, mean ± SD

| SMILES | cooperativity α (SMARCA4BD) [1] | solubility [2] | solubility at 24 h [2, 7] | solubility at 24 h [2, 8] | microsomal stability [3] | Mic. Stab. Human [3] | Mic. Stab. Human QH [3] | Mic. Stab. Mouse [3] | Mic. Stab. Mouse QH [3] | Mic. Stab. Rat [3] | Mic. Stab. Rat QH [3] | EC50 [4] | cooperativity α (PBRM1BD) [5] | Kd [6, 9] | Kd ([6]; ternary, individual replicates) | alpha [6] | Solubility pH 4.5 ([2]; pH 4.5) | Solubility pH 6.8 ([2]; pH 6.8) |
| --- | --- | --- | --- | --- | --- | --- | --- | --- | --- | --- | --- | --- | --- | --- | --- | --- | --- | --- |
| Cc1ncsc1-c1ccc([C@H](CCCCCN2CCC(c3ccc4c(c3)n(C3CCCC3)c3nc(=O)c5c(Br)cccc5n43)CC2)NC(=O)[C@@H]2C[C@@H](O)CN2C(=O)[C@@H](NC(=O)C2(F)CC2)C(C)(C)C)cc1 [compound 11] | 4.2 ± 0.4 | moderate solubility | < 1 µg/mL | < 1 µg/mL | good microsomal stability | <24 % QH | <24.400 <24.400 <24.400 <24.400% | <24 % QH | <24.200 <24.200 <24.200 <24.200 <24.200 <24.200 <24.200 <24.200% | <23 % QH | <23.100 <23.100 <23.100 <23.100 <23.100 <23.100 <23.100 <23.100% | 0.004 ± 0.001 µM | 11.9 ± 1.3 | 0.037 ± 0.012 µM | 0.0454 µM and 0.0281 µM | 0.3 | – | – |
| Cc1ncsc1-c1ccc(CNC(=O)[C@@H]2C[C@@H](O)CN2C(=O)[C@@H](NC(=O)C2(F)CC2)C(C)(C)C)c(OCCN2CCC(c3ccc4c(c3)n(C3CCCC3)c3nc(=O)c5c(Br)cccc5n43)CC2)c1 [compound 20] | 0.4 ± 0.0 | – | – | – | – | 89 ± 7 % QH | 92.780% and 92.740% and 91.810% and 92.050% and 77.420% | 76 ± 2 % QH | 73.270% and 75.530% and 75.780% and 78.330% | 33 ± 3 % QH | 34.870% and 29.970% and 29.780% and 36.100% and < 23.080% | 0.035 ± 0.004 µM | 1.1 ± 0.1 | 0.097 ± 0.01 µM | 0.0895 µM and 0.108 µM and 0.0918 µM | 0.1 | <1.000 <1.000 <1.000 <1.000 <1.000 ug/mL | <1.000 <1.000 <1.000 <1.000 <1.000 ug/mL |
| Cc1ncsc1-c1ccc(CNC(=O)[C@@H]2C[C@@H](O)CN2C(=O)[C@@H](NC(=O)C2(F)CC2)C(C)(C)C)c(OCCOCCOCCN2CCC(c3ccc4c(c3)n(C3CCCC3)c3nc(=O)c5c(Br)cccc5n43)CC2)c1 [compound 21] | 4.0 ± 0.2 | – | – | – | – | 87 ± 10 % QH | 92.470% and 92.660% and 75.300% | 56 ± 10 % QH | 62.650% and 61.360% and 44.780% | 45 ± 13 % QH | 57.680% and 45.850% and 32.500% | 0.038 ± 0.004 µM | 2.0 ± 0.1 | 0.058 ± 0.008 µM | 0.049 µM and 0.0654 µM and 0.0583 µM | 0.4 | 200.000 ug/mL and 180.000 ug/mL and 190.000 ug/mL | – |
| Cc1ncsc1-c1ccc(CNC(=O)[C@@H]2C[C@@H](O)CN2C(=O)[C@@H](NC(=O)C2(F)CC2)C(C)(C)C)c(OCCCCN2CCC(c3ccc4c(c3)n(C3CCCC3)c3nc(=O)c5c(Br)cccc5n43)CC2)c1 [compound 23] | 0.9 ± 0.1 | – | – | – | – | 78 % QH | 78.440% | 42 % QH | 42.090% | <23 % QH | <23.080% | 0.021 ± 0.003 µM | 2.0 ± 0.4 | 0.12 ± 0.008 µM | 116 nM (2×) and 129 nM | 0.1 | <1.000 ug/mL | <1.000 ug/mL |
| Cc1ncsc1-c1ccc([C@H](CCCCN2CCC(c3ccc4c(c3)n(C3CCCC3)c3nc(=O)c5c(Br)cccc5n43)CC2)NC(=O)[C@@H]2C[C@@H](O)CN2C(=O)[C@@H](NC(=O)C2(F)CC2)C(C)(C)C)cc1 [compound 25] | 2.3 ± 0.4 | – | – | – | – | 25 % QH | 24.800% | <24 % QH | <24.200% | <23 % QH | <23.100% | 0.003 ± 0.001 µM | 11.2 ± 2.1 | 0.036 ± 0.015 µM | 0.0227 µM and 0.0516 µM and 0.0329 µM | 0.2 | <1.000 ug/mL | <1.000 ug/mL |
| Cc1ncsc1-c1ccc([C@H](COCCN2CCC(c3ccc4c(c3)n(C3CCCC3)c3nc(=O)c5c(Br)cccc5n43)CC2)NC(=O)[C@@H]2C[C@@H](O)CN2C(=O)[C@@H](NC(=O)C2(N(C)C)CC2)C(C)(C)C)cc1 [compound 26] | 2.6 ± 0.7 | – | 200 µg/mL (≈ 188 µM) | < 1 µg/mL | – | 86 ± 0.3 % QH | 86.500% and 86.000% and 86.480% | >88 % QH | > 88.400% and 90.900% | 58 ± 3 % QH | 60.400% and 54.700% and 57.700% | 0.006 ± 0.002 µM | 4.0 ± 1.2 | 0.095 ± 0.037 µM | 0.0641 µM and 0.136 µM and 0.0863 µM | 0.8 | – | – |
| Cc1ncsc1-c1ccc([C@H](COCCCN2CCC(c3ccc4c(c3)n(C3CCCC3)c3nc(=O)c5c(Br)cccc5n43)CC2)NC(=O)[C@@H]2C[C@@H](O)CN2C(=O)[C@@H](NC(=O)C2(F)CC2)C(C)(C)C)cc1 [compound 27] | 2.8 ± 0.5 | – | – | – | – | 43 ± 5 % QH | 46.200% and 38.900% | <25 % QH | 24.700% and < 24.200% | <23 % QH | <23.100 <23.100% | 0.003 ± 0.0005 µM | 12.2 ± 2.8 | 0.026 µM | 0.0267 µM and 0.0259 µM and 0.0264 µM | 0.5 | <1.000 <1.000 ug/mL | <1.000 <1.000 ug/mL |

Reference: paper PMC9551036, “A selective and orally bioavailable VHL-recruiting PROTAC achieves SMARCA2 degradation in vivo” (Nature Communications, 2022)
